Values quoted from earlier work, collected in patent US20080268045A1, “SUSTAINED RELEASE METHOTREXATE FORMULATIONS AND METHODS OF USE THEREOF” (Proprius Pharmaceuticals, Inc., priority 2006, published 2008).

- Bioavailability of orally dosed methotrexate (higher dose strength (10-15 mg/dose)): 30-40%
- Bioavailability of orally administered methotrexate (lower dose strength): ≤ 60%
SMILES: CN(Cc1cnc2nc(N)nc(N)c2n1)c1ccc(C(=O)N[C@@H](CCC(=O)O)C(=O)O)cc1 [methotrexate]
